Measured values reported in patent US9035059B2, “Nitrogen-containing condensed heterocyclic compound” (TAISHO PHARMACEUTICAL CO., LTD., priority 2011, dated 2015).

Biological target: human MGAT2 (Homo sapiens (Human), UniProt Q3SYC2)
Assay: Test Example 1: Test of MGAT2 inhibitory action (human MGAT2 enzyme fraction from Sf9 cells, free CoA detected by CPM fluorescence)
Format: biochemical
Details: human MGAT2 enzyme fraction expressed in Sf9 insect cells, 0.5 μg/ml, 2-monooleoyl glycerol 0.78 μM, oleoyl-CoA 5.3 μM, room temperature 20 min, read-out: Activity Value [nM] (IC50, concentration at which 50% of produced free CoA was inhibited)
Procedure: The MGAT2 inhibitory action of the inventive compound was measured by the methods described in Test Examples as shown below. The MGAT enzyme activity was measured based on the amount of an indicator, free Coenzyme A (CoA) which is generated by the reaction shown below, using a sulfhydryl reactive pigment (7-diethylamino-3-(4-maleimidophenyl)-4-methylcoumarin; hereinafter, sometimes abbreviated as CPM).
A test for MGAT2 inhibitory action of test compounds was conducted in accordance with a partially modified version of the method described in John F. Lockwood et al., Am. J. Physiol. Endocrinol. Metab., 2003, 285, E927.
Bac-to-Bac Baculovirus Expression System (Life Technologies Japan) was used to express human MGAT2 in insect cells (Sf9) (Life Technologies Japan). These cells were sonicated and centrifuged at 100,000 g×1 hr to give a precipitate. The precipitate was used as a human MGAT2 enzyme fraction in this assay.
This test was conducted using a black flat-bottom 96-well plate (Corning). A buffer solution with final concentrations of 5 mM magnesium chloride, 100 mM sucrose and 100 mM Tris-HCl (pH=7.5) was prepared and test compounds prepared in various concentrations using dimethyl sulfoxide were added thereto to give a final dimethyl sulfoxide concentration of 1%. The MGAT2 enzyme fraction was added thereto to give a final concentration of 0.5 μg/ml and phosphatidylcholine, 2-monooleoyl glycerol and oleoyl-CoA were added thereto to give final concentrations of 7.5 μM, 0.78 μM and 5.3 μM, respectively, before starting a reaction. The reaction was performed at room temperature for 20 min.
After 20 min, a CPM-containing solution was added thereto to give a final concentration of 5 μM before stopping the MGAT reaction. After 1 hr, a fluorescence detector (Infinite 200 from Tecan Japan) was used to measure the CPM fluorescence value of each well (excitation 380 nm, emission 460 nm).

Chain of human MGAT2 (Q3SYC2 whole entry): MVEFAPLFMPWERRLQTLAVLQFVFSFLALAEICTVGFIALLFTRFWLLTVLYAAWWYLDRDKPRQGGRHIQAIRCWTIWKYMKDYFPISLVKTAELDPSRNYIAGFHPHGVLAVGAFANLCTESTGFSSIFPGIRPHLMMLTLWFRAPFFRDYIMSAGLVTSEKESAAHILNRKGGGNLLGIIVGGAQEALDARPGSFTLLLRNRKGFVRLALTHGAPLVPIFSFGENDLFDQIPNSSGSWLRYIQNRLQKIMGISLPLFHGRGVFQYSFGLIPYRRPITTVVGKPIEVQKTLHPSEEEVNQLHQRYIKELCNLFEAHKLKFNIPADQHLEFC

Compound	IC50
CC(C)(C)c1ccc(NC(=O)N2Cc3ccc(S(=O)(=O)Nc4ccc(OCCCCc5ccccc5)cc4F)cc3C2)cc1 [19-2]	30 nM
CC(C)(C)c1ccc(NC(=O)N2Cc3ccc(S(=O)(=O)Nc4ccc(OCCCC5CCCC5)cc4F)cc3C2)cc1 [19-3]	4 nM
C/C=C\CCCCCOc1ccc(NS(=O)(=O)c2ccc3c(c2)CN(C(=O)Nc2ccc(C(C)(C)C)cc2)C3)c(F)c1 [19-4]	2 nM
CC(C)CCCOc1ccc(NS(=O)(=O)c2ccc3c(c2)CN(C(=O)Nc2ccc(C(C)(C)C)cc2)C3)c(F)c1 [19-7]	99 nM
CCCCCCCOc1ccc(NS(=O)(=O)c2ccc3c(c2)CN(C(=O)Nc2ccc(C(C)(C)C)cc2)C3)c(F)c1 [19-8]	28 nM
C/C=C\CCCOc1ccc(NS(=O)(=O)c2ccc3c(c2)CN(C(=O)Nc2ccc(C(C)(C)C)cc2)C3)c(F)c1 [19-11]	128 nM
CC(C)(C)c1ccc(NC(=O)N2Cc3ccc(S(=O)(=O)Nc4ccc(OCCc5ccccn5)cc4F)cc3C2)cc1 [19-12]	23 nM
O=S(=O)(Nc1ccc(CCCC2CCCC2)cc1F)c1ccc2c(c1)CCN(CCc1ccc(OC(F)(F)F)cc1)C2 [22-2]	256 nM
CC(c1ccc(C(C)(C)C)nc1)N1CCc2cc(S(=O)(=O)Nc3ccc(CCCC4CCCC4)cc3F)ccc2C1 (stereo not drawn) [23-1, 2-[1-(6-tert-Butylpyridin-3-yl)ethyl]-N-[4-(3-cyclopentylpropyl)-2-fluorophenyl]-1,2,3,4-tetrahydroisoquinoline-6-sulfonamide]	13 nM
CC(c1ccc(C(C)(C)C)nc1)N1CCc2cc(S(=O)(=O)Nc3ccc(OCCCCCc4ccccc4)cc3F)ccc2C1 (stereo not drawn) [23-2]	14 nM
O=C(OC1CCCCC1)N1CCc2cc(S(=O)(=O)Nc3ccc(CCCC4CCCC4)cc3F)ccc2C1 [26-1, Cyclohexyl 6-{[4-(3-cyclopentylpropyl)-2-fluorophenyl]sulfamoyl}-3,4-dihydroisoquinoline-2(1H)-carboxylate]	217 nM
CC(C)(C)c1ccc(C(=O)N2CCc3cc(S(=O)(=O)Nc4ccc(CCCC5CCCC5)cc4F)ccc3C2)cc1 [Working Example 1-4]	211 nM
O=C(c1ccc(C(F)(F)F)nc1)N1CCc2cc(S(=O)(=O)Nc3ccc(CCCC4CCCC4)cc3F)ccc2C1 [Working Example 1-5]	154 nM
CC(C)(C)[C@H]1CC[C@H](C(=O)N2CCc3cc(S(=O)(=O)Nc4ccc(CCCC5CCCC5)cc4F)ccc3C2)CC1 [Working Example 1-6]	88 nM
CC(C)(C)[C@H]1CC[C@@H](C(=O)N2CCc3cc(S(=O)(=O)Nc4ccc(CCCC5CCCC5)cc4F)ccc3C2)CC1 [Working Example 1-7]	292 nM
CC(C)(C)c1ccc(CC(=O)N2CCc3cc(S(=O)(=O)Nc4ccc(OCCC5CCCCC5)cc4F)ccc3C2)cc1 [Working Example 4-1, 2-[(4-tert-Butylphenyl)acetyl]-N-[4-(2-cyclohexylethoxy)-2-fluorophenyl]-1,2,3,4-tetrahydroisoquinoline-6-sulfonamide]	149 nM
CC(C)(C)c1ccc(CCN2CCc3cc(S(=O)(=O)Nc4ccc(OCCC5CCCCC5)cc4F)ccc3C2)cc1 [Working Example 5-1, 2-[2-(4-tert-Butylphenyl)ethyl]-N-[4-(2-cyclohexylethoxy)-2-fluorophenyl]-1,2,3,4-tetrahydroisoquinoline-6-sulfonamide]	76 nM
CC(C)(C)c1ccc(CCN2CCc3cc(S(=O)(=O)Nc4ccc(CCCC5CCCC5)cc4F)ccc3C2)cc1 [Working Example 6-17]	28 nM
CCCCCCCc1ccc(NS(=O)(=O)c2ccc3c(c2)CCN(CCc2ccc(C(C)(C)C)cc2)C3)c(F)c1 [Working Example 6-18]	35 nM
CC(C)(C)c1ccc(CCN2CCc3cc(S(=O)(=O)Nc4ccc(CCCC5CCCCC5)cc4F)ccc3C2)cc1 [Working Example 6-19]	62 nM
CC(C)(C)c1ccc(CN2CCc3cc(S(=O)(=O)Nc4ccc(OCCCc5ccccc5)cc4F)ccc3C2)cn1 [Working Example 6-26]	218 nM
CCCCCCOc1ccc(NS(=O)(=O)c2ccc3c(c2)CCN(Cc2ccc(C(C)(C)C)nc2)C3)c(F)c1 [Working Example 6-27]	135 nM
CC(C)(C)c1ccc(CCN2CCc3cc(S(=O)(=O)Nc4ccc(CCCCCc5ccccc5)cc4F)ccc3C2)cc1 [Working Example 6-28]	53 nM
CCCCCCOc1ccc(NS(=O)(=O)c2ccc3c(c2)CCN(CCc2ccc(C(C)(C)CO)cc2)C3)c(F)c1 [Working Example 6-30]	214 nM
CC(C)(C)c1ccc(CN2CCc3cc(S(=O)(=O)Nc4ccc(CCCC5CCCC5)cc4F)ccc3C2)cn1 [Working Example 6-31]	31 nM
CCCCCCCc1ccc(NS(=O)(=O)c2ccc3c(c2)CCN(Cc2ccc(C(C)(C)C)nc2)C3)c(F)c1 [Working Example 6-32]	31 nM

Compound	IC50
CCCCCCCCOc1ccc(NS(=O)(=O)c2ccc3c(c2)CCN(Cc2ccc(C(C)(C)C)nc2)C3)c(F)c1 [Working Example 6-33]	26 nM
CC(C)(C)c1ccc(CN2CCc3cc(S(=O)(=O)Nc4ccc(OCCCCCc5ccccc5)cc4F)ccc3C2)cn1 [Working Example 6-34]	36 nM
CC(C)(C)c1ccc(CN2CCc3cc(S(=O)(=O)Nc4ccc(OCCCC5CCCCC5)cc4F)ccc3C2)cn1 [Working Example 6-35]	65 nM
CCCCCCCCN1CCc2cc(S(=O)(=O)Nc3ccc(OCCCCCC)cc3F)ccc2C1 [Working Example 6-36]	253 nM
CCCCCCOc1ccc(NS(=O)(=O)c2ccc3c(c2)CCN(CCc2ccc(C(C)(C)C)nc2)C3)c(F)c1 [Working Example 6-44]	258 nM
CC(C)(C)c1ccc(CCN2CCc3cc(S(=O)(=O)Nc4ccc(OCCCc5ccccc5)cc4F)ccc3C2)cn1 [Working Example 6-45]	286 nM
CC(C)(C)c1ncc(CN2CCc3cc(S(=O)(=O)Nc4ccc(CCCC5CCCC5)cc4F)ccc3C2)s1 [Working Example 6-48]	49 nM
O=S(=O)(Nc1ccc(CCCC2CCCC2)cc1F)c1ccc2c(c1)CCN(Cc1ccc(C(F)(F)F)nc1)C2 [Working Example 6-54]	180 nM
CC(C)(C)c1ccc(CCN2CCc3cc(S(=O)(=O)Nc4ccc(CCCC5CCCC5)cc4F)ccc3C2)cn1 [Working Example 6-63]	62 nM
CC(C)(C)c1cnc(CCN2CCc3cc(S(=O)(=O)Nc4ccc(CCCC5CCCC5)cc4F)ccc3C2)nc1 [Working Example 6-64]	40 nM
Cc1nc(-c2ccc(C(F)(F)F)cc2)sc1CN1CCc2cc(S(=O)(=O)Nc3ccc(CCCC4CCCC4)cc3F)ccc2C1 [Working Example 6-65]	51 nM
CC(C)(C)c1ccc(CN2CCc3cc(S(=O)(=O)Nc4ccc(OCCC5CCOCC5)cc4F)ccc3C2)cc1 [Working Example 6-66]	203 nM
CC(C)(C)c1ccc(CCN2CCc3cc(S(=O)(=O)Nc4ccc(CCCC5CCOCC5)cc4F)ccc3C2)cc1 [Working Example 6-75]	24 nM
O=S(=O)(Nc1ccc(CCCC2CCCC2)cc1F)c1ccc2c(c1)CCN(Cc1cnc(C(F)(F)F)nc1)C2 [Working Example 6-78]	228 nM
CCCCCCOc1ccc(NS(=O)(=O)c2ccc3c(c2)CCN(Cc2cnc(C(C)(C)C)s2)C3)c(F)c1 [Working Example 7-19]	195 nM
CCCCCCCc1ccc(NS(=O)(=O)c2ccc3c(c2)CCN(Cc2ccc(C(F)(F)F)nc2)C3)c(F)c1 [Working Example 7-29]	134 nM
CCCCCCCc1ccc(NS(=O)(=O)c2ccc3c(c2)CCN(Cc2cnc(C(C)(C)C)s2)C3)c(F)c1 [Working Example 7-32]	42 nM
CCCCCCCc1ccc(NS(=O)(=O)c2ccc3c(c2)CCN(CCCCCC)C3)c(F)c1 [Working Example 7-35]	220 nM
CC(C)Oc1ccc(CN2CCc3cc(S(=O)(=O)Nc4ccc(CCCC5CCCC5)cc4F)ccc3C2)cc1 [Working Example 7-45]	199 nM
O=S(=O)(Nc1ccc(CCCC2CCCC2)cc1F)c1ccc2c(c1)CCN(Cc1ccc(OC(F)(F)C(F)F)cc1)C2 [Working Example 7-50]	273 nM
O=S(=O)(Nc1ccc(CCCC2CCCC2)cc1F)c1ccc2c(c1)CCN(CCCC(F)(F)F)C2 [Working Example 7-54]	162 nM
CC(C)(C)c1ncc(CN2CCc3cc(S(=O)(=O)Nc4ccc(CCCC5CCCC5)cc4F)ccc3C2)cn1 [Working Example 7-56]	52 nM
CC(C)(C)c1cnc(CN2CCc3cc(S(=O)(=O)Nc4ccc(CCCC5CCCC5)cc4F)ccc3C2)cn1 [Working Example 7-60]	233 nM
CC(C)(C)c1ccc(CCN2CCc3cc(S(=O)(=O)Nc4ccc(OCCCCc5ccccc5)cc4F)ccc3C2)cc1 [Working Example 8-1, 2-[2-(4-tert-Butylphenyl)ethyl]-N-[2-fluoro-4-(4-phenylbutoxy)phenyl]-1,2,3,4-tetrahydroisoquinoline-6-sulfonamide]	70 nM
CC(C)(C)c1ccc(CCN2CCc3cc(S(=O)(=O)Nc4ccc(OCCCc5ccccc5)cc4F)ccc3C2)cc1 [Working Example 8-2]	173 nM
